This assay deals with T1, FAK (Mus musculus, UniProt P34152).
T1 construct: expressed in transfected cells; host or cells: FAK-/- (p53-/-) mouse embryonic fibroblasts stably re-expressing GFP-FAK
Briefly: GFP-FAK displacement from focal adhesions (fluorescence imaging, ImageJ quantification of focal adhesions per cell). Type of assay: cell-based. The following applies: for IC50: GFP-FAK MEFs on fibronectin, 1 h incubation, focal adhesions per cell, Hill slope model, read-out: IC50 (displacement of FAK from focal adhesions, cellular IC50); for time to FAK displacement, vinculin localization not disturbed: GFP-FAK MEFs stably expressing mKate-vinculin, 40 µM; for time to FAK displacement from focal adhesions: 20 µM, time series; for concentration sufficient to induce FAK displacement: increasing concentrations. The source says:
Ectopic expression of FRNK as a dominant negative inhibitor of FAK effectively blocks FAK dependent events. This type of interference seems to be used physiologically for regulation of FAK function in certain cell types (Taylor et al. 2001). However, there is currently no possibility to instantaneously interfere with FAK localization. Therefore, the inventors sought to identify small molecules to disrupt FAK mediated protein-protein-interactions. Towards this line they set-up a High Content Screen based on FAK-/- MEFs re-expressing GFP-FAK to visualize FAK localization at focal adhesions. Cells were seeded on fibronectin and incubated to allow adherence and spreading. Prior to fixation, cell nuclei were Hoechst stained. FAK containing focal adhesions and cells per field of view were quantified using a custom-made macro for ImageJ. The macro identifies focal adhesions due to local maxima of fluorescence intensity in the GFP-channel. Cells were counted in the Hoechst channel based on a binary image. Closely connected cell nuclei were separated by a watershed algorithm. […] Next, as a proof of principle GFP-FAK MEFs were transduced to express mKate2-tagged FRNK. mKate2-FRNK localizes to focal adhesions, where it efficiently displaces GFP-FAK (Figure 2). […] Consequently, the software can correctly identify FAK displacement from focal adhesions.
In order to find small molecules which induce the specific delocalization of FAK, two commercial compound libraries with more than 17.000 entries were screened. GFP-FAK MEFs were seeded on fibronectin in multi-well plates and compounds were transferred to the cells with a robot to a final concentration of 40 µM. Cells were incubated for 4 h and nuclei were Hoechst stained prior to fixation. Cells were imaged with an automated microscope and data were analyzed with the ImageJ macro. In the first screening round the macro identified 108 hits, which were curated by visual inspection to exclude instances of dramatic cell rounding and/or detachment. […] To validate these primary hits the inventors transduced the GFP-FAK MEFs to stably express mKate-vinculin, which serves as a FAK-independent marker of focal adhesions and facilitates indication of specific FAK displacement. On a first approach two compounds were identified, which induced FAK displacement within less than 1 h, while vinculin localization was not disturbed (Figure 4). […] Strikingly, they share distinct structural characteristics since both compounds have a NO2-group and an isosteric halogen-substituted phenyl- or thiophene-group (Figure 5).
In order to investigate the kinetics of FAK displacement at focal adhesions a time series was performed. GFP-FAK MEFs were treated with 20 µM of Mb31 or Mb36 and fixed after different time points. […] Mb36 kinetic was slightly slower with FAK delocalization after 20 min. In addition, GFP-FAK MEFs were treated with increasing concentrations of Mb31 or Mb36 to determine the minimum concentration required to interfere with FAK localization. Untreated or solvent (DMSO) treated cells show the expected localization of FAK at focal adhesions. […] Already 2 µM of Mb31 were sufficient to induce FAK displacement. […] Due to the faster kinetic and lower IC50 compared to Mb36 further studies were mainly performed using Mb31. […] In contrast, vinculin localization and the focal adhesion localization of talin, α-actinin, and zyxin is not disturbed (Figure 5 and Table 1).
About 17.000 compounds (40 µM working concentration) were screened for their ability to displace GFP-FAK from focal adhesions (FA) using an automated microscope (ImageXpress Micro, Molecular Devices, Ismaning, Germany) equipped with a Nikon 20x/0.75 NA CFI Plan Apo objective. […]

This note sets out measurements from patent EP2982368A1, “Small molecule compounds displacing focal adhesion core components” (Universität Konstanz, priority 2014, dated 2016).

SMILES strings stand for the structures.

As usually defined, the IC50 is the concentration that gives 50% inhibition.

T1 sequence (P34152 whole entry): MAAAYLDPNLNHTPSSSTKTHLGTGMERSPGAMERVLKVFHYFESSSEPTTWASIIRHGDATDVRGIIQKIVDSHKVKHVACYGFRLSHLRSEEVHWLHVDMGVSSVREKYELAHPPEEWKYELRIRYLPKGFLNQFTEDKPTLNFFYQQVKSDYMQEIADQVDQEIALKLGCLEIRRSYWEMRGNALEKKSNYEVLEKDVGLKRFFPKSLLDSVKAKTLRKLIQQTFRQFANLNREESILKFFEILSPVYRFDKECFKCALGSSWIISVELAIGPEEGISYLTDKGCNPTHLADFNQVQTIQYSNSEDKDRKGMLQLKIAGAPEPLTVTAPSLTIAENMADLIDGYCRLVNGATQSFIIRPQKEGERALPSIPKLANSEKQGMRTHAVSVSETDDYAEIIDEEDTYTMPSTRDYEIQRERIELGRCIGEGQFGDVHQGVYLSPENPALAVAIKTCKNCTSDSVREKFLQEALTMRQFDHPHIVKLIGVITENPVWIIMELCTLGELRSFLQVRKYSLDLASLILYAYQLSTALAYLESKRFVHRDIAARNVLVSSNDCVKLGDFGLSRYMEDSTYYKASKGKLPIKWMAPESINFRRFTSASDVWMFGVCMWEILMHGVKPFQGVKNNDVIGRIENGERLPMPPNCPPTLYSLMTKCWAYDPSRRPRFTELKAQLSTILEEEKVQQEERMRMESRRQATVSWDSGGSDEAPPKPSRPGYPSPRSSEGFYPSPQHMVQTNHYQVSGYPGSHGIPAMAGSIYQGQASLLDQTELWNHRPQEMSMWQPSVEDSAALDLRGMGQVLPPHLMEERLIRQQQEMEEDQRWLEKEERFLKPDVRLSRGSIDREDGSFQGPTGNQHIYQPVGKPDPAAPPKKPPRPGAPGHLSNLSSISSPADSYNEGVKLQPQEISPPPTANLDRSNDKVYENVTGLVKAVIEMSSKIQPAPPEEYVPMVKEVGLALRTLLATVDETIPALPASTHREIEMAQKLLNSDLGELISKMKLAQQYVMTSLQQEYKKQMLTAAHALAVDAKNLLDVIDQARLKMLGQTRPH

For `O=[N+]([O-])C=Cc1cc(Br)cs1` [FootLocker 1, 4-bromo-2-(2-nitrovinyl)thiophene], the IC50 was ~2 µM and the “time to FAK displacement, vinculin localization not disturbed” value was “less than 1 h”. Besides, for the setting “GFP-FAK MEFs”, the “time to FAK displacement from focal adhesions” value was ≤ 5 min and the “concentration sufficient to induce FAK displacement” value is 2 µM. Moreover, where the note is “second approach, narrower concentration range (1-5 µM)”, the “concentration sufficient for efficient FAK displacement” value is given as “about 4 µM”.

With `Nc1ccc(SC(C[N+](=O)[O-])c2ccc(Cl)cc2)cc1` (stereo not shown) [FootLocker 2, 4-{[1-(4-chlorophenyl)-2-nitroethyl]thio}aniline], the IC50 is ~4.1 µM and the “time to FAK displacement, vinculin localization not disturbed” value is listed as “less than 1 h”. The “effect on FAK localization” value (GFP-FAK MEFs, 2 µM) is recorded as “no effect was observed”. Where the note is “GFP-FAK MEFs”, the “time to FAK displacement from focal adhesions” value is given as 20 min and the “concentration sufficient to induce FAK displacement” value was found to be 5 µM.
